Values after ≈ are worked out from the molar mass of the structure shown.
Assays:
[1] = system: MRSA ATCC 43300; test: Antimicrobial efficacy in G. mellonella model of infection; assay type: in vivo, Galleria mellonella
Procedure: Procedure: Compound 14av_amine16 was tested in a Galleria mellonella model, which are an easy and inexpensive in vivo model with no ethical constraints for investigating antibacterial activity of a compound.^22 The G. mellonella model of S. aureus infection was used as previously described.^24 Briefly, 1 mL aliquots of overnight cultures of S. aureus 43300 were pelleted by centrifugation and washed with sterile PBS before being resuspended in 100 μL of PBS. G. mellonella larvae (N=10) that weighed 200-300 mg were then inoculated with 10 μL of S. aureus (2.5×10^6 CFU) into the last left proleg. Larvae were then treated with compounds at 1 h before bacterial inoculation. Treatments were performed in the same manner as infection, except that compounds were injected into the next left proleg moving toward the head of the larvae. […] Data was analyzed for statistical significance using a log rank and χ square test with 1 degree of freedom. Various concentrations of compound 14av_amine16 dissolved in 50% PEG in saline (0 mg/Kg, 50 mg/Kg and 100 mg/Kg) were injected into the hemocoel of last-instar G. mellonella larvae and survival was scored over time.
The efficacy of compound 14av_amine16 against G. mellonella larvae infected with MRSA ATCC 43300 was investigated. Inoculation of lethal dose of 2.5×10^6 CFU/larva of MRSA ATCC 43300 led to a significant death rate. […]

[2] = system: USA300 #1799 (community-associated MRSA); test: MIC against clinically isolated strain 8; assay type: cell-based, S. aureus; details: Staphylococcus aureus
Procedure: (§1) Procedure of Antimicrobial susceptibility test: The MIC value of compounds was measured in the antimicrobial susceptibility test using the broth microdilution procedure in accordance with the CLSI guidelines.^21 Cation-adjusted Mueller Hinton broth (CA-MHB) was used for all the S. aureus strains in the assay. Cells in exponential phase of growth were diluted to approximately 5×10^5 cfu/mL. Stock solutions of each compound were freshly dissolved in dimethyl sulfoxide (DMSO). Then, serial dilutions of each compound in CA-MHB medium were added into 96-well microplate. The final percentage of DMSO in the assay was 1%. Control experiments were performed with 1% DMSO instead of the compound solution. After being incubated at 37° C. for 18 h, OD600 value of cells was measured on a microplate reader and the percentage of bacterial cell inhibition with respect to controls was calculated. The MIC value was defined as the lowest compound concentration at which the growth of bacteria was inhibited by ≥90%. Three independent assays were performed for each compound.
(§2) Results: Three compounds, namely 14av_amine16, 14dv_amine16 and 14dv_amine06, were selected to be tested against nine in-house clinically isolated bacterial strains including S. aureus ATCC29247, which is an ampicillin resistant strain, S. aureus ATCC BAA-41, ATCC BAA-1717, ATCC BAA-1720, ATCC 43300 which are methicillin resistant strains and four USA300 strains, (#417, #757, #1799 and #2690), which are the predominant strain type of community-associated MRSA strains in the United States.

[3] = system: S. aureus ATCC 43300 (methicillin resistant); test: MIC against clinically isolated strain 5; assay type: cell-based; details: Staphylococcus aureus, ATCC43300
Procedure: as §1, §2

SMILES: CCC(CC)c1cc(CCN2CCCN(Cc3ccc(C(F)(F)F)cc3)CC2)nc(-c2ccncc2)n1 [Compound 14av_amine16, 1-(2-(6-(pentan-3-yl)-2-(pyridin-4-yl)pyrimidin-4-yl)ethyl)-4-(4-(trifluoromethyl)benzyl)-1,4-diazepane]
- survival time of infected larvae ([1]; 50 mg/Kg, lethal dose 2.5×10^6 CFU/larva MRSA ATCC 43300): 36 h
- survival rate of infected larvae over the infection period ([1]; 100 mg/Kg, lethal dose MRSA ATCC 43300, 48 h): 20%
- MIC [2]: 12 µM (≈ 6.14 µg/mL)
- MIC [3]: 12 µM (≈ 6.14 µg/mL)
